In PMC5432571 (Frontiers in Molecular Neuroscience, 2017):
Read-outs that look alike come from different tables or passages of the source.

Target: T1, α2 GlyR (Homo sapiens, UniProt P23416)
T1 construct: expressed in transfected cells; host or cells: CHO cells
T1 sequence (P23416 28-452 isoform P23416-2 limits assumed): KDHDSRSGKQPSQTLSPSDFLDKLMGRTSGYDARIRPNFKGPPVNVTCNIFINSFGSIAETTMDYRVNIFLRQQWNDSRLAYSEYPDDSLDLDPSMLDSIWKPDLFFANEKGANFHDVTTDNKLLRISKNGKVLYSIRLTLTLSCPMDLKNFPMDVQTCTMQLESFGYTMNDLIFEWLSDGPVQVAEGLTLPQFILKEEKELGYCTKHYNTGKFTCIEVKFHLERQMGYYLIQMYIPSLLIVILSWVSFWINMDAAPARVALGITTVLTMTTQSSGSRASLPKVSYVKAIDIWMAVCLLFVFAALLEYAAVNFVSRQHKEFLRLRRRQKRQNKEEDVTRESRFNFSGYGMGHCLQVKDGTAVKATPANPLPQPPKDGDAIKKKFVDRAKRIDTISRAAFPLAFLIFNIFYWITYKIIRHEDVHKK
Assay: Whole-cell patch-clamp of glycine-induced currents, α2 GlyR expressed in CHO cells
Format: cell-based
Conditions: for glycine-evoked current, % from the control: NFA 10 μM
Protocol: The experiments were carried out on cultured Chinese hamster ovary (CHO) cells obtained from the American Type Tissue Culture Collection (ATCC, Molsheim, France) that were maintained in culture conditions as previously described (Mukhtarov et al., [2013]; Maleeva et al., [2015]).
One day before transfection, cells were plated on the cover slips (12 mm in diameter) and placed inside 35-mm cell culture dishes with 2 ml of medium. Transfection was performed using the Lipofectamine 3000 protocol (Life Technology, USA). To facilitate identification of transfected cells a green fluorescent protein (GFP) was added to the transfection mixture. For expression of functional heteromeric receptors, cells were simultaneously transfected with cDNAs of α and β subunits in the ratio 1:10. Three hours after the initial exposure of cells to the cDNAs the culture medium was replaced with that containing strychnine (1 μM), which prevents spontaneous activation of GlyRs. Electrophysiological recordings were performed in the fluorescent cells 24–72 h after transfection.
Whole-cell and outside-out recordings were performed at room temperature (20–25°C) using an EPC-9 amplifier (HEKA Elektronik, Germany). Cells were continuously superfused with external solution containing (mM): NaCl 140, CaCl2 2, KCl 2.8, MgCl2 4, HEPES 20, glucose 10; pH 7.4; 320–330 mOsm. Intracellular solution used for filling recording patch pipettes contained (mM): CsCl 140, CaCl2 6, MgCl2 2, MgATP 2, NaGTP 0.4, HEPES/CsOH 10, BAPTA (tetrapotassium salt) 2; pH 7.3; 290 mOsm. Two different protocols of solutions application were used in this study. […] A “ramp protocol” implies the gradual change of Vhold alternately from −80 to +80 mV and from +80 to −80 mV during 1 s, Vhold was fixed at −80 or +80 mV at the beginning and at the end of the ramp for 500 ms (Figure 2B).
Recording pipettes were pulled from borosilicate glass capillaries (Harvard Apparatus Ltd, USA) and had resistances of 5–10 MOhm. For the rapid replacement of the solutions, the fast application system was used. Three parallel rectangular tubes (100 × 100 μm) were positioned 40–50 μm above the recorded cell. The movement of the tubes was controlled by a computer-driven fast exchange system (SF 77A Perfusion Fast-Step, Warner, USA) allowing a 10–90% solution exchange in 3–5 ms, as measured by open electrode controls (1/10 external solution/water). Cells with low input resistance (<150 MOhm) and a rapid run-down (>30% with repetitive application) were excluded from analysis.
Electrophysiological recordings were performed using PatchMaster (HEKA Electronic, Germany) software.
The fractional electrical distance from the external side of the membrane (δ) at which bound NFA blocked the current was calculated using the Woodhull equation: IC50(V)=IC50(0) exp (−δFV/RT), where IC50(V) is IC50 at the given membrane potential, IC50(0) – at 0 mV, V – membrane potential and F, R, T have their usual meanings. δ was determined from a plot of IC50 values against membrane potential.

SMILES: O=C(O)c1cccnc1Nc1cccc(C(F)(F)F)c1 [NFA, Niflumic acid]
- IC50 (+30 mV, glycine 30 μM, representative, read-out: NFA IC50 (representative IC50 curve)): 17 µM
- IC50 (+30 mV, glycine 100 μM, representative, read-out: NFA IC50 (representative IC50 curve)): 12 µM
- IC50 (+80 mV, glycine 30 μM, ramp protocol, mean ± SEM, read-out: IC50 of NFA): 9 ± 2 µM
- IC50 (+80 mV, glycine 30 μM, representative, read-out: NFA IC50 (representative IC50 curve)): 12 µM
- IC50 (+80 mV, glycine 100 μM, ramp protocol, mean ± SEM, read-out: IC50 of NFA): 9 ± 2 µM
- IC50 (+80 mV, glycine 100 μM, representative, read-out: NFA IC50 (representative IC50 curve)): 7 µM
- inhibition at 10 µM (CHO): ~50%
- glycine-evoked current, % from the control (MP +80 mV): 43 ± 5%
- glycine-evoked current, % from the control (MP −80 mV): 89 ± 4%
- Hill coefficient (nH) of NFA interaction (membrane potential 30 mV, glycine 30 μM): 1.1 ± 0.14
- Hill coefficient (nH) of NFA interaction (membrane potential 50 mV, glycine 30 μM): 1 ± 0.14
- Hill coefficient (nH) of NFA interaction (membrane potential 70 mV, glycine 30 μM): 1 ± 0.13
- Hill coefficient (nH) of NFA interaction (membrane potential 80 mV, glycine 30 μM): 0.97 ± 0.09
- Hill coefficient (nH) of NFA interaction (membrane potential −50 mV, glycine 30 μM): 1.14 ± 0.12
- Hill coefficient (nH) of NFA interaction (membrane potential −70 mV, glycine 30 μM): 1.04 ± 0.08
- Hill coefficient (nH) of NFA interaction (membrane potential −80 mV, glycine 30 μM): 1.05 ± 0.06
- Hill coefficient (nH) of NFA inhibitory action (overall statement in discussion): ~1
- IC50 (read-out: IC50 of NFA): 133 ± 20 µM
- IC50 (−30 mV, glycine 30 μM, representative, read-out: NFA IC50 (representative IC50 curve)): 75 µM
- IC50 (−30 mV, glycine 100 μM, representative, read-out: NFA IC50 (representative IC50 curve)): 39 µM
- IC50 (−80 mV, glycine 30 μM, ramp protocol, mean ± SEM, read-out: IC50 of NFA): 166 ± 28 µM
- IC50 (−80 mV, glycine 30 μM, representative, read-out: NFA IC50 (representative IC50 curve)): 155 µM
- IC50 (−80 mV, glycine 100 μM, representative, read-out: NFA IC50 (representative IC50 curve)): 100 µM
